A short description of the data set: Human HepG2 cell viability assay in 384 well format. The arrangement: dose 125 nL, time 70.5 hour; cytotoxicity at 70.5 h: concentration not given beside the values. It is filed as toxicity, cell-based. Particulars: HepG2 cells, read-out: Inhibition.
Regarding `O=C(CCOc1ccccc1)NS(=O)(=O)Cc1ccccc1`, the cytotoxicity at 70.5 h is -5.31%.

`O=C(Cn1ccc(-c2ccccc2)n1)N1CCN(C(=O)C2CC2)CC1`: the cytotoxicity at 70.5 h is -2.62%. The value for `CN(C(=O)NCCCN1CCCC1)C1CCN(c2ccccc2)C1=O` (stereo not drawn) was 4.81%; that for `Cc1noc(CN(Cc2cccs2)C2CC2)n1` was 17.3%; that for `Cc1cc(CC(=O)N2CCN(CC(C)C)[C@@H]3CS(=O)(=O)C[C@@H]32)ccc1F` was 7.77%. The value for `CCOC(=O)CNC(=O)NCc1cc(C)n(-c2ccccc2OC)c1C` was 14.4%; that for `CCOCC(=O)N1CC[C@H]2[C@@H]1CCC(=O)N2Cc1csc(C)n1` was -10.5%. Regarding `COc1ncccc1C(=O)N1CCC(Nc2ccc(C)nn2)CC1`, the cytotoxicity at 70.5 h was -4.22%. The value for `CC(C)NC(=O)C1CN(C(=O)Nc2ccccc2)CC12CCOCC2` (stereo not drawn) was 22%; that for `COCCNC(=O)C(C)N1CCN(C)CC1` (stereo not drawn) was -5.18%.

For the molecule `Cc1noc([C@H]2C[C@H]3OCC[C@H]3N(Cc3ccc4c(c3)OCO4)C2)n1`, the cytotoxicity at 70.5 h is -11.8%.

For the molecule `CN(Cc1cncs1)C1CCN(C(=O)OC(C)(C)C)CC1`, the cytotoxicity at 70.5 h is -8.3%.

For the molecule `CCC(C(=O)N1CCN(S(=O)(=O)N2CCCC2)CC1)n1cccn1` (stereo not drawn), the cytotoxicity at 70.5 h was -3.42%.

In the case of `Cc1c(C(=O)NC(CN2CCCC2=O)c2ccccc2)cnn1C` (stereo not drawn), the cytotoxicity at 70.5 h turned out to be 0.932%. For the molecule `CC(Cc1ccsc1)NC(=O)c1cc(N2CCNC2=O)ccc1F` (stereo not drawn), the cytotoxicity at 70.5 h was -9.62%. As for `COCC1(CNc2cc(C(C)C)nc(N)n2)CC1`, the cytotoxicity at 70.5 h is 2.2%. The value for `CCC(NC(=O)c1cnc(N(C)C)nc1C)c1ccncc1` (stereo not drawn) was -6.22%; that for `Cc1cccc(N2CCC3(CCCN(C(=O)c4cccnc4)C3)CC2)n1` was 0.517%; that for `Cc1ncc(CN(C)C(=O)c2ccc3c(c2O)OC(C)(C)C3)s1` was -1.48%. The value for `CN1CCCC2(CCN(S(=O)(=O)c3c(Cl)nc4sccn34)C2)C1=O` (stereo not drawn) was -5.17%. For the molecule `Cc1noc([C@H]2C[C@@H]3CCN(CC4CC4)C[C@H]3O2)n1`, the cytotoxicity at 70.5 h was -7.86%. The value for `Cn1cc(CN2CCOC3(CCCN(C(=O)c4ccco4)C3)C2)cn1` (stereo not drawn) was -6.59%; that for `Cc1nnc(SCc2cc(=O)n3c4c(sc3n2)CCCC4)[nH]1` was -8.32%. As for `Cc1cc(C(=O)N(CC(F)(F)F)C2CCOCC2)c(C)o1`, the figure is -7.23%; as for `CC(C)Oc1ccccc1C(=O)NC1CC(=O)N(CC(F)(F)F)C1` (stereo not drawn), -22.6%. For the molecule `CC(CC#N)N(C)Cc1ccccc1F` (stereo not drawn), the cytotoxicity at 70.5 h is -9.07%. The value for `COC(=O)c1ccc(OC)c(CN2CCN(CC(C)C)C(=O)C2C)c1` (stereo not drawn) was 26.8%; that for `Cc1nc(C)n(CC2CCCN(Cc3ncc(C(C)(C)C)o3)C2)n1` (stereo not drawn) was 23%; that for `CC(C)C(=O)N1CCC12CCCN(C(=O)c1ccccc1)C2` (stereo not drawn) was -2.99%. Turning to `Cc1nc[nH]c1-c1nnc(SCC(=O)O)n1-c1ccccc1C(F)(F)F`, the cytotoxicity at 70.5 h is -6.65%. As to `CN(C)CCNC(=O)c1ccn(-c2ccc3ccccn23)n1`, the cytotoxicity at 70.5 h is -6.93%. The value for `Cc1cc(CN2CCN(C(C)c3nc(C4CC4)no3)CC2)no1` (stereo not drawn) was -4.52%; that for `CS(=O)(=O)N1CCN(C(=O)C2CSCCC(=O)N2)CC1` (stereo not drawn) was 19.7%; that for `Cc1cc(S(=O)(=O)NCC(C)(O)CN(C)C)c(F)cc1F` (stereo not drawn) was -9.95%. As for `Cc1nc(N2CCCC2)nc2c1CCN(C(=O)C(C)C)CC2`, the figure is -15.8%; as for `N#Cc1cccc(N2CC3(CCN(C(=O)C4CC=CC4)C3)CC2=O)c1` (stereo not drawn), -9.81%; as for `CN1[C@H](CO)C[C@H](CNCc2ccc(CO)o2)[C@@H]1c1ccccc1F`, -4.51%. The value for `COCCN1CCN(Cc2nc(-c3ccoc3)no2)CC1` was -4.32%; that for `COc1ccc2nc3n(c2c1)[C@@H](CNC(=O)c1cncnc1)COC3` was -2.36%. For the molecule `CC(Cn1cncn1)NC(=O)Nc1ccc(F)cc1OCC1CC1` (stereo not drawn), the cytotoxicity at 70.5 h is -9.35%. Turning to `CS(=O)(=O)N1CCc2ncc(CNC(=O)C3CCC3)n2CC1`, the cytotoxicity at 70.5 h is -1.87%. For `COCc1csc(NC(=O)N2CCC(Cc3cnn(C)c3)C2)n1` (stereo not drawn), the cytotoxicity at 70.5 h was -4.37%. Consider `COc1c(CNCc2cccc(Cn3cccn3)c2)c(C)nn1C`, for which the cytotoxicity at 70.5 h was 3.69%. As for `CCc1nc(C)c(C(=O)NCCN2CCC(C)CC2)s1`, the cytotoxicity at 70.5 h was 0.72%. As to `Cc1cc(C)c(N(CC(O)CNCc2ccco2)S(C)(=O)=O)c(C)c1` (stereo not drawn), the cytotoxicity at 70.5 h was -7.18%. The value for `CCOc1ncccc1NC(=O)N1CCC(CN2CCOCC2)CC1` was -3.11%; that for `CNC(=O)[C@@H]1C[C@@H](NC(=O)CCCc2cccs2)CN1C1CCOCC1` was -1.92%. `Cc1nn(C)c(C)c1OCC(=O)NCc1cccc(CO)c1`: the cytotoxicity at 70.5 h was 2.69%. The value for `Cc1ccc(NC2CCN(C(=O)Cc3cccc(F)c3)CC2)nn1` was -4.83%.

On to `CC(c1ccc(S(N)(=O)=O)cc1)N(C)C(=O)c1ccccc1I` (stereo not drawn), for which the cytotoxicity at 70.5 h was -5.97%. Consider `O=C(c1ccsc1)N1CCO[C@@H]2CN(Cc3ccco3)CC[C@@H]2C1`, for which the cytotoxicity at 70.5 h turned out to be 0.973%. In the case of `CCOc1ccnc(N2CCN(C(=O)c3ccn(C)c(=O)c3)CC2)n1`, the cytotoxicity at 70.5 h is -1.73%.

Consider `O=C(c1ccco1)N1CCc2onc(CN3CCCC3)c2C1`, for which the cytotoxicity at 70.5 h was found to be 7.25%.

On to `CN(C)C(=O)COC[C@@H]1CC[C@H]2[C@H](CCN2c2ncccn2)O1`, for which the cytotoxicity at 70.5 h was -66.5%.

With `O=C(c1cnc(-c2ccco2)s1)N1CCOc2ncccc21`, the cytotoxicity at 70.5 h was -1.16%.

As for `Cc1ccc2c(-c3nc4c([nH]3)CCNC4C(=O)O)cccc2n1` (stereo not drawn), the cytotoxicity at 70.5 h is -0.899%. The value for `CNc1nc(N2CCN(C3CCCCC3)C(CCO)C2)nc2c1CCC2` (stereo not drawn) was -3.63%; that for `Cc1ccc(OCC(=O)N(C)Cc2ccc(F)cc2)cn1` was -8.48%; that for `CN1CC(C(=O)NCc2ccc(OCc3cccnc3)cc2)CC1=O` (stereo not drawn) was 12.9%. In the case of `COCCCN1C(=O)CC[C@H]2CN(Cc3cc4ccccc4o3)CC[C@H]21`, the cytotoxicity at 70.5 h was -1.98%.

For the molecule `Cc1cc(C)cc(C(C)NCc2nnc(C)s2)c1` (stereo not drawn), the cytotoxicity at 70.5 h was -12%. Take `CN1CCN(c2cccc(NC(=O)NCc3csc(N(C)C)n3)c2)C1=O`: the cytotoxicity at 70.5 h worked out at 35.3%. In the case of `CCCN1CCc2nc(SCc3c(C)cc(C)cc3C)[nH]c(=O)c2C1`, the cytotoxicity at 70.5 h stood at 4.68%. The value for `CN(Cc1ccc(F)cc1C#N)CC(F)(F)F` was 17.4%. Turning to `Cc1cc(C)n(C2CCN(C(=O)c3cn4ccsc4n3)C2)n1` (stereo not drawn), the cytotoxicity at 70.5 h was -7.56%. As for `CC(C)c1cc(C(=O)N2CCN(Cc3ccsc3)CC2)n[nH]1`, the cytotoxicity at 70.5 h is -9.01%. As for `CSCCC(=O)N1CCN(CC(C)O)CC1` (stereo not drawn), the figure is -2.96%; as for `O=C(O)C1c2nc[nH]c2CCN1Cc1ccc(-c2ccccc2)s1` (stereo not drawn), -4.04%. As for `CNC(=O)CCN1CCC(c2nnc(Cn3cccn3)n2C2CC2)CC1`, the figure is -8.33%. As for `O=C(CNC(=O)c1cnc2ccccc2c1O)NCCCn1ccnc1`, the figure is -16.5%; as for `Cc1nc(C)n(CC2CCCCN2CCCS(C)(=O)=O)n1` (stereo not drawn), 9.04%. For `Cc1nnc(NCCn2nc(C)c(Cl)c2C)o1`, the cytotoxicity at 70.5 h is -6.66%.

Turning to `CC(=O)Nc1nc(C2CCN(C(=O)C3CCC3)CC2)cs1`, the cytotoxicity at 70.5 h was -5.93%. Turning to `O=C(NCCCn1cncn1)N1CCCC(N2CCCC2)C1` (stereo not drawn), the cytotoxicity at 70.5 h was -4.6%.

`Cc1ccoc1-c1nnc(CNCCn2cccn2)o1`: the cytotoxicity at 70.5 h was 31.8%. Turning to `N#Cc1cccnc1N1CCCC(CO)(Cc2cccc(Cl)c2)C1` (stereo not drawn), the cytotoxicity at 70.5 h was 2.5%. Regarding `CN1CCC(Cc2cccc(-c3cc(F)ccc3C(=O)O)n2)CC1`, the cytotoxicity at 70.5 h is -4.18%. As for `COc1ccccc1CCNC(=O)N1CCC(n2cncn2)CC1`, the figure is -7.07%; as for `COc1ccc(-c2noc(CNC(C)Cn3cccn3)n2)c(OC)c1` (stereo not drawn), 22.3%. As for `O=C(NC1CCS(=O)(=O)C1)c1cc(Sc2ncccn2)ccn1` (stereo not drawn), the cytotoxicity at 70.5 h is -13.4%. As for `CCOC1(C)C(=O)c2ccccc2N1Nc1ccccc1C(=O)CC` (stereo not drawn), the figure is -14.4%; as for `Cc1noc(C)c1CN(C)Cc1csc(-c2ncccn2)n1`, -3.82%; as for `Cc1cnn(CC2CCCCN2C(=O)Cc2cccc(F)c2)c1` (stereo not drawn), -10.9%. `O=C(NC1CCCCC1)N1CCn2c(nnc2C2CCCN2)C1` (stereo not drawn): the cytotoxicity at 70.5 h was -12.5%. As for `O=C(CCc1cscn1)N1CCCC1c1noc(C2CC2)n1` (stereo not drawn), the figure is -15.3%; as for `Cc1noc(C)c1CNC(=O)N1CCC(NS(C)(=O)=O)CC1`, -3.15%; as for `CC[C@H]1COCCN1C(=O)c1cnc(C(C)C)nc1C`, 16.6%. Turning to `CCC(CNS(N)(=O)=O)Oc1ccccc1F` (stereo not drawn), the cytotoxicity at 70.5 h was -7.45%. Turning to `Cc1cc(C)c(S(=O)(=O)Nc2c(C)nc(N3CCCC3)nc2C)cc1C`, the cytotoxicity at 70.5 h turned out to be 2.48%. As for `O=C(O)CN1CCOCC(Cc2ccc(Cl)cc2)C1` (stereo not drawn), the cytotoxicity at 70.5 h was -7.85%. For the molecule `Cc1ccc(CNC(=O)CCN2CCOC(C(F)(F)F)C2)cc1` (stereo not drawn), the cytotoxicity at 70.5 h was -2.06%. The value for `O=C(c1cnccn1)N1CCC(F)(F)C2(CCN(c3ccccn3)C2)C1` (stereo not drawn) was -8.49%; that for `COCC(=O)NC1CCCN(c2ccc(C)cc2)C1=O` (stereo not drawn) was -0.459%.

Regarding `Cc1cn(-c2ccccc2)nc1NS(=O)(=O)c1cc(C(=O)O)ccc1Cl`, the cytotoxicity at 70.5 h was -9.13%. As for `CC(=O)c1ccc(N2CCCC(CO)(CCOc3ccccc3)C2)nc1` (stereo not drawn), the figure is -13.1%; as for `Cc1nn(C)c(C)c1-c1ccnc(N2CCCN(CC(C)C)CC2)n1`, 4.01%; as for `Cc1ccc(-c2nc(CN3CCC(C(=O)N(C)C)CC3)cs2)o1`, 9.92%. The value for `CCN1CCC2(CC1)CN(C(=O)c1cccnc1)c1ccc(Cl)cc12` was -10.5%.
